According to patent US20050119231A1, “Quinolone antibacterial agents” (priority 2003, published 2005):
≈ marks a conversion by molar mass, not a printed value.

What was measured:
Experiment in all cases: Antibacterial microtitration assay (Test A), MIC
Format in all cases: cell-based
E. coli EC-2549 = details: Escherichia coli, EC2549; Gram Negative Bacteria; strain EC-2549; read-out: Minimum Inhibitory Concentrations E. coli EC-2549
Procedure: (§1) Test A—Antibacterial Assays
(§2) The compounds of the present invention were tested against an assortment of Gram-negative and Gram-positive organisms using standard microtitration techniques (Cohen et. al., Antimicrob., 1985;28:766; Heifetz, et. al., Antimicrob., 1974;6:124).

H. influenzae HI-3542 = details: Haemophilus influenzae, HI3542; Gram Negative Bacteria; strain HI-3542; read-out: Minimum Inhibitory Concentrations H. influenzae HI-3542
Procedure: as §1, §2

M. catarrhalis BC-3531 = details: Moraxella catarrhalis, BC3531; Gram Negative Bacteria; strain BC-3531; read-out: Minimum Inhibitory Concentrations M. catarrhalis BC-3531
Procedure: as §1, §2

E. faecalis MGH-2 = details: Enterococcus faecalis, MGH2; Gram Positive Bacteria; strain MGH-2; read-out: Minimum Inhibitory Concentrations E. faecalis MGH-2
Procedure: as §1, §2

S pyogenes C203 = details: Gram Positive Bacteria; strain C203; read-out: Minimum Inhibitory Concentrations S pyogenes C203
Procedure: as §1, §2

S. aureus UC-76 = details: Staphylococcus aureus, UC76; Gram Positive Bacteria; strain UC-76; read-out: Minimum Inhibitory Concentrations S. aureus UC-76
Procedure: as §1, §2

S. pneumo SV-1 = details: Streptococcus pneumoniae, SV1; Gram Positive Bacteria; strain SV-1; read-out: Minimum Inhibitory Concentrations S. pneumo SV-1
Procedure: as §1, §2

SMILES	MIC (E. coli EC-2549)	MIC (H. influenzae HI-3542)	MIC (M. catarrhalis BC-3531)	MIC (E. faecalis MGH-2)	MIC (S pyogenes C203)	MIC (S. aureus UC-76)	MIC (S. pneumo SV-1)
Cc1c(N2CCC(CO)C2)c(F)cc2c(=O)n(N)c(=O)n(C3CC3)c12 (stereo not shown) [drawing 311]	4 µg/mL (≈ 11.5 µM)	0.5 µg/mL (≈ 1.44 µM)	1 µg/mL (≈ 2.87 µM)				
COc1c(N2CCC(C(O)c3ncco3)C2)c(F)cc2c(=O)n(N)c(=O)n(C3CC3)c12 (stereo not shown) [drawing 312]	32 µg/mL (≈ 74.2 µM)	2 µg/mL (≈ 4.64 µM)	2 µg/mL (≈ 4.64 µM)				
Cc1c(N2CCC(C(O)c3ncco3)C2)c(F)cc2c(=O)n(N)c(=O)n(C3CC3)c12 (stereo not shown) [drawing 313]	16 µg/mL (≈ 38.5 µM)	1 µg/mL (≈ 2.41 µM)	2 µg/mL (≈ 4.81 µM)				
COc1c(N2CCC(C(O)C(C)(F)F)C2)c(F)cc2c(=O)n(N)c(=O)n(C3CC3)c12 (stereo not shown) [drawing 314]	64 µg/mL (≈ 149 µM)	4 µg/mL (≈ 9.34 µM)	8 µg/mL (≈ 18.7 µM)				
COc1c(N2CCC(CCO)C2)c(F)cc2c(=O)n(N)c(=O)n(C3CC3)c12 (stereo not shown) [drawing 315]	16 µg/mL (≈ 42.3 µM)	2 µg/mL (≈ 5.29 µM)	1 µg/mL (≈ 2.64 µM)				
COc1c(N2CCC(C(O)C3(CO)CC3)C2)c(F)cc2c(=O)n(N)c(=O)n(C3CC3)c12 (stereo not shown) [drawing 316]	8 µg/mL (≈ 18.4 µM)	1 µg/mL (≈ 2.3 µM)	1 µg/mL (≈ 2.3 µM)				
Cc1c(N2CCC(C(O)CO)C2)c(F)cc2c(=O)n(N)c(=O)n(C3CC3)c12 (stereo not shown) [drawing 317]	4 µg/mL (≈ 10.6 µM)	0.5 µg/mL (≈ 1.32 µM)	1 µg/mL (≈ 2.64 µM)				
COc1c(N2CCC(C(O)C(F)(F)F)C2)c(F)cc2c(=O)n(N)c(=O)n(C3CC3)c12 (stereo not shown) [drawing 318]	2 µg/mL (≈ 4.63 µM)	0.125 µg/mL (≈ 0.289 µM)	0.125 µg/mL (≈ 0.289 µM)				
COCC1CCN(c2c(F)cc3c(=O)n(N)c(=O)n(C4CC4)c3c2OC)C1 (stereo not shown) [drawing 319]	32 µg/mL (≈ 84.6 µM)	4 µg/mL (≈ 10.6 µM)	4 µg/mL (≈ 10.6 µM)				
Cc1c(N2CCC(CO)C2)c(F)cc2c(=O)n(N)c(=O)n(C3CC3)c12 (stereo not shown) [drawing 320]				2 µg/mL (≈ 5.74 µM)	2 µg/mL (≈ 5.74 µM)	0.5 µg/mL (≈ 1.44 µM)	1 µg/mL (≈ 2.87 µM)
COc1c(N2CCC(C(O)c3ncco3)C2)c(F)cc2c(=O)n(N)c(=O)n(C3CC3)c12 (stereo not shown) [drawing 321]				8 µg/mL (≈ 18.5 µM)	8 µg/mL (≈ 18.5 µM)	0.5 µg/mL (≈ 1.16 µM)	8 µg/mL (≈ 18.5 µM)
Cc1c(N2CCC(C(O)c3ncco3)C2)c(F)cc2c(=O)n(N)c(=O)n(C3CC3)c12 (stereo not shown) [drawing 322]				8 µg/mL (≈ 19.3 µM)	4 µg/mL (≈ 9.63 µM)	1 µg/mL (≈ 2.41 µM)	4 µg/mL (≈ 9.63 µM)
COc1c(N2CCC(C(O)C(C)(F)F)C2)c(F)cc2c(=O)n(N)c(=O)n(C3CC3)c12 (stereo not shown) [drawing 323]				16 µg/mL (≈ 37.3 µM)	8 µg/mL (≈ 18.7 µM)	2 µg/mL (≈ 4.67 µM)	8 µg/mL (≈ 18.7 µM)
COc1c(N2CCC(CCO)C2)c(F)cc2c(=O)n(N)c(=O)n(C3CC3)c12 (stereo not shown) [drawing 324]				4 µg/mL (≈ 10.6 µM)	4 µg/mL (≈ 10.6 µM)	0.5 µg/mL (≈ 1.32 µM)	2 µg/mL (≈ 5.29 µM)
COc1c(N2CCC(C(O)C3(CO)CC3)C2)c(F)cc2c(=O)n(N)c(=O)n(C3CC3)c12 (stereo not shown) [drawing 325]				4 µg/mL (≈ 9.21 µM)	8 µg/mL (≈ 18.4 µM)	0.5 µg/mL (≈ 1.15 µM)	4 µg/mL (≈ 9.21 µM)
Cc1c(N2CCC(C(O)CO)C2)c(F)cc2c(=O)n(N)c(=O)n(C3CC3)c12 (stereo not shown) [drawing 326]				2 µg/mL (≈ 5.29 µM)	1 µg/mL (≈ 2.64 µM)	0.25 µg/mL (≈ 0.661 µM)	1 µg/mL (≈ 2.64 µM)

SMILES	MIC (E. coli EC-2549)	MIC (H. influenzae HI-3542)	MIC (M. catarrhalis BC-3531)	MIC (E. faecalis MGH-2)	MIC (S pyogenes C203)	MIC (S. aureus UC-76)	MIC (S. pneumo SV-1)
COc1c(N2CCC(C(O)C(F)(F)F)C2)c(F)cc2c(=O)n(N)c(=O)n(C3CC3)c12 (stereo not shown) [drawing 327]				1 µg/mL (≈ 2.31 µM)	1 µg/mL (≈ 2.31 µM)	0.06 µg/mL (≈ 0.139 µM)	0.5 µg/mL (≈ 1.16 µM)
COCC1CCN(c2c(F)cc3c(=O)n(N)c(=O)n(C4CC4)c3c2OC)C1 (stereo not shown) [drawing 328]				4 µg/mL (≈ 10.6 µM)	4 µg/mL (≈ 10.6 µM)	1 µg/mL (≈ 2.64 µM)	2 µg/mL (≈ 5.29 µM)
Nn1c(=O)c2cc(F)c(N3C[C@@H](CO)[C@@H](CO)C3)nc2n(C2CC2)c1=O [drawing 330]	16 µg/mL (≈ 43.8 µM)	0.5 µg/mL (≈ 1.37 µM)	1 µg/mL (≈ 2.74 µM)				
Nn1c(=O)c2cc(F)c(N3C[C@H](CO)[C@@H](CO)C3)nc2n(C2CC2)c1=O [drawing 331]	32 µg/mL (≈ 87.6 µM)	1 µg/mL (≈ 2.74 µM)	4 µg/mL (≈ 10.9 µM)				
Nn1c(=O)c2cc(F)c(N3C[C@@H](O)[C@@H](O)C3)nc2n(C2CC2)c1=O [drawing 332]	16 µg/mL (≈ 47.4 µM)	0.5 µg/mL (≈ 1.48 µM)	2 µg/mL (≈ 5.93 µM)				
Nn1c(=O)c2cc(F)c(N3C[C@@H](CCO)[C@@H](CCO)C3)nc2n(C2CC2)c1=O [drawing 333]	0.125 µg/mL (≈ 0.318 µM)	0.015 µg/mL (≈ 0.0381 µM)	0.06 µg/mL (≈ 0.153 µM)				
Nn1c(=O)c2cc(F)c(N3C[C@H](CO)[C@H](F)C3)nc2n(C2CC2)c1=O [drawing 334]	4 µg/mL (≈ 11.3 µM)	0.5 µg/mL (≈ 1.42 µM)	1 µg/mL (≈ 2.83 µM)				
Nn1c(=O)c2cc(F)c(N3C[C@@H](CO)[C@@H](CO)C3)nc2n(C2CC2)c1=O [drawing 335]				4 µg/mL (≈ 10.9 µM)	1 µg/mL (≈ 2.74 µM)	0.25 µg/mL (≈ 0.684 µM)	2 µg/mL (≈ 5.47 µM)
Nn1c(=O)c2cc(F)c(N3C[C@H](CO)[C@@H](CO)C3)nc2n(C2CC2)c1=O [drawing 336]				8 µg/mL (≈ 21.9 µM)	2 µg/mL (≈ 5.47 µM)	0.5 µg/mL (≈ 1.37 µM)	4 µg/mL (≈ 10.9 µM)
Nn1c(=O)c2cc(F)c(N3C[C@@H](O)[C@@H](O)C3)nc2n(C2CC2)c1=O [drawing 337]				8 µg/mL (≈ 23.7 µM)	8 µg/mL (≈ 23.7 µM)	2 µg/mL (≈ 5.93 µM)	8 µg/mL (≈ 23.7 µM)
Nn1c(=O)c2cc(F)c(N3C[C@@H](CCO)[C@@H](CCO)C3)nc2n(C2CC2)c1=O [drawing 338]				0.06 µg/mL (≈ 0.153 µM)	0.03 µg/mL (≈ 0.0763 µM)	0.002 µg/mL (≈ 0.00508 µM)	0.03 µg/mL (≈ 0.0763 µM)
Nn1c(=O)c2cc(F)c(N3C[C@H](CO)[C@H](F)C3)nc2n(C2CC2)c1=O [drawing 339]				4 µg/mL (≈ 11.3 µM)	4 µg/mL (≈ 11.3 µM)	0.25 µg/mL (≈ 0.708 µM)	2 µg/mL (≈ 5.66 µM)
Cc1c(N2C[C@](C)(CO)[C@](C)(CO)C2)c(F)cc2c(=O)n(N)c(=O)n(C3CC3)c12 [drawing 341]	64 µg/mL (≈ 157 µM)	16 µg/mL (≈ 39.4 µM)	32 µg/mL (≈ 78.7 µM)				
Cc1c(N2C[C@](C)(CO)[C@](C)(CO)C2)c(F)cc2c(=O)n(N)c(=O)n(C3CC3)c12 [drawing 342]				16 µg/mL (≈ 39.4 µM)	32 µg/mL (≈ 78.7 µM)	2 µg/mL (≈ 4.92 µM)	16 µg/mL (≈ 39.4 µM)
Cc1c(N2CC3CCC(O)(CO)C3C2)c(F)cc2c(=O)n(N)c(=O)n(C3CC3)c12 (stereo not shown) [drawing 344]	32 µg/mL (≈ 79.1 µM)	4 µg/mL (≈ 9.89 µM)	4 µg/mL (≈ 9.89 µM)				
Cc1c(N2CC3CCC(O)(CO)C3C2)c(F)cc2c(=O)n(N)c(=O)n(C3CC3)c12 (stereo not shown) [drawing 345]				8 µg/mL (≈ 19.8 µM)	8 µg/mL (≈ 19.8 µM)	1 µg/mL (≈ 2.47 µM)	8 µg/mL (≈ 19.8 µM)
